# In article PMC10138506, “Design, Synthesis and Cytotoxic Activity of Novel Salicylaldehyde Hydrazones against Leukemia and Breast Cancer” (International Journal of Molecular Sciences, 2023):
# Like-named read-outs stand apart in the source and are kept apart here.
# Legend:
# HL-60 cells = test: MTT-dye reduction cytotoxicity assay, HL-60; assay type: cell-based, human; settings: for IC50: Homo sapiens, HL-60; for SI (selectivity index) HL-60: SI = IC50 (HEK-293)/IC50 (cancer cells)
# Procedure: (§1) The research included four leukemic and three cancer human cell lines: HL-60 (acute myeloid leukemia), SKW-3 (KE-37 derivative) (T-cell leukemia), BV-173 and K-562 (chronic myeloid leukemia), MDA-MB-231 (ER-negative breast carcinoma), MCF-7 (ER-positive breast adenocarcinoma), and SaOS-2 (osteogenic sarcoma). The cells were provided from the German Collection of Microorganisms and Cell Cultures (DSMZ, Braunschweig, Germany). The solid tumor cell lines (MDA-MB-231, MCF-7, and SaOS-2) were incubated in 90% RPMI-1640 supplemented with 10% fetal bovine serum (FBS), non-essential amino acids, 1 mM sodium pyruvate, and […] human insulin as monolayer adherent cultures. The remaining cell lines were cultivated as a suspension culture in cell culture flasks at 37 °C in an incubator “BB 16-Function Line” Heraeus (Kendro, Hanau, Germany) with humidified atmosphere and 5% CO2 under standard conditions–RPMI-1640 liquid media supplemented with 10% FBS and 2 mM L-glutamine. The cells were kept in log phase by supplementing with fresh media after removing cell suspension aliquots two or three times each week.
# (§2) At least eight wells were used for each concentration.
# K-562 cells = test: MTT-dye reduction cytotoxicity assay, K-562; assay type: cell-based, human; settings: for IC50: Homo sapiens, K562; for SI (selectivity index) K-562: SI = IC50 (HEK-293)/IC50 (cancer cells); for Ligand Efficiency (LE) K-562: LE = pIC50/number of heavy atoms
# Procedure: as §1, §2
# [1] = system: HL-60, KE-37, K-562, BV-173, SaOS-2, MDA-MB-231, MCF-7 cell lines; test: Average over the cancer cell lines tested (LE, SI); assay type: cell-based, human; settings: average over seven cancer cell lines
# Procedure: (§3) To assess the selectivity of the newly synthesized derivatives, they were tested on the normal human embryonic kidney HEK-293 cell line. The derived IC50 values were used to calculate the selectivity index according to the formula SI = IC50 (normal cells)/IC50 (cancer cells).
# The training set of salicylaldehyde hydrazones contained 11 compounds synthesized and tested before in our Lab. Their anticancer activities were measured and expressed as IC50 values on the following cell lines: HL-60, KE-37, K-562, BV-173, SaOS-2, MDA-MB-231, and MCF-7. For the purposes of SAR analysis, the IC50 values were converted in p-units (−logIC50) and ligand efficiencies (LEs) were calculated according to the formula: LE = pIC50/n, where n is the count of non-hydrogen atoms in the molecule.
# KE-37 cells = test: MTT-dye reduction cytotoxicity assay, KE-37; assay type: cell-based, human; settings: for IC50: Homo sapiens, KE-37; for SI (selectivity index) KE-37: SI = IC50 (HEK-293)/IC50 (cancer cells)
# Procedure: as §1, §2
# BV-173 cells = test: MTT-dye reduction cytotoxicity assay, BV-173; assay type: cell-based, human; settings: for IC50: Homo sapiens, BV-173; for SI (selectivity index) BV-173: SI = IC50 (HEK-293)/IC50 (cancer cells)
# Procedure: as §1, §2
# MDA-MB-231 cells = test: MTT-dye reduction cytotoxicity assay, MDA-MB-231; assay type: cell-based, human; settings: for IC50: Homo sapiens, MDA-MB-231; for SI (selectivity index) MDA-MB-231: SI = IC50 (HEK-293)/IC50 (cancer cells)
# Procedure: as §1, §2
# MCF-7 cells = test: MTT-dye reduction cytotoxicity assay, MCF-7; assay type: cell-based, human; settings: for IC50: Homo sapiens, MCF7; for SI (selectivity index) MCF-7: SI = IC50 (HEK-293)/IC50 (cancer cells)
# Procedure: as §1, §2
# [2] = MTT-dye reduction cytotoxicity assay, normal HEK-293; settings: human
# Procedure: as §3
# The cytotoxic activity of the examined substances was determined using Mossman’s MTT [3-(4,5-dimethylthiazol-2-yl)-2,5-diphenyltetrazolium bromide] dye reduction assay. The approach is based on the reduction of the yellow tetrazolium salt MTT to a violet formazan in live cells via mitochondrial succinate dehydrogenase. In brief, exponentially developing cells were seeded at a density of 1 × 10^5 cells per ml in 96-well flat-bottomed microplates (100 μL/well), and after 24 h of incubation at 37 °C, they were treated to varied doses of the tested substances for 72 h. At least eight wells were used for each concentration. Following the incubation with the test compounds, aliquots of 10 μL MTT solution (10 mg/mL in PBS) were applied to each well. The microplates were then incubated at 37 °C for 4 h before the MTT-formazan crystals were dissolved with 100 μL/well 5% HCOOH in 2-propanol. The MTT-formazan absorbance was measured at 580 nm using a microprocessor-controlled microplate reader (Labexim LMR-1).
# The cell survival data were standardized as a percentage of the untreated control (set as 100% viability). The biological data were processed statistically using Student’s t-test, where values were considered statistically significant at p ≤ 0.05. The corresponding IC50 values were obtained to allow quantitative merit for the assessment of the relative potencies of the compounds under investigation. Each data point represents the arithmetic mean ± standard deviation (sd) of at least eight independent experiments.
# SaOS-2 cells = test: MTT-dye reduction cytotoxicity assay, SaOS-2; assay type: cell-based, human; settings: for IC50: Homo sapiens, SAOS-2; for SI (selectivity index) SaOS-2: SI = IC50 (HEK-293)/IC50 (cancer cells)
# Procedure: as §1, §2
# [3] = 72 h treatment, read-out: IC50 exp, HL-60
# [4] = 72 h treatment, read-out: IC50 exp, K-562
# [5] = 72 h treatment, read-out: IC50 exp, KE-37
# [6] = 72 h treatment, read-out: IC50 exp, BV-173
# [7] = 72 h treatment, read-out: IC50 exp, MDA-MB-231
# [8] = 72 h treatment, read-out: IC50 exp, MCF-7
# [9] = HEK-293 cells (normal human embryonic kidney)
# [10] = 72 h treatment, read-out: IC50 exp, SaOS-2
# [11] = training set, some activities published before [26-32], the rest measured for this study, read-out: IC50 ± standard deviation, HL-60
# [12] = training set, some activities published before [26-32], the rest measured for this study, read-out: IC50 ± standard deviation, K-562
# [13] = training set, some activities published before [26-32], the rest measured for this study, read-out: IC50 ± standard deviation, KE-37
# [14] = training set, some activities published before [26-32], the rest measured for this study, read-out: IC50 ± standard deviation, BV-173
# [15] = training set, some activities published before [26-32], the rest measured for this study, read-out: IC50 ± standard deviation, MDA-MB-231
# [16] = training set, some activities published before [26-32], the rest measured for this study, read-out: IC50 ± standard deviation, MCF-7
# [17] = training set, some activities published before [26-32], the rest measured for this study, read-out: IC50 ± standard deviation, SaOS-2
Structure (SMILES),IC50 (SaOS-2 cells; [10]) [µM],IC50 (HL-60 cells; [11]) [µM],IC50 (K-562 cells; [12]) [µM],IC50 (KE-37 cells; [13]) [µM],IC50 (BV-173 cells; [14]) [µM],IC50 (MDA-MB-231 cells; [15]) [µM],IC50 (MCF-7 cells; [16]) [µM],IC50 (SaOS-2 cells; [17]) [µM],further results
"COc1ccc(C=NNC(=O)c2ccncc2)c(O)c1 [Compound 14, 4-methoxysalicylaldehyde isonicotinoylhydrazone]",1.66 ± 0.24,,,,,,,,"IC50 (HL-60 cells; [3]): 0.06 ± 0.004 µM; SI (selectivity index) HL-60 (HL-60 cells): 685; IC50 (K-562 cells; [4]): 0.05 ± 0.008 µM; SI (selectivity index) K-562 (K-562 cells): 821; average SI [1]: 258; IC50 (KE-37 cells; [5]): 2.26 ± 0.73 µM; SI (selectivity index) KE-37 (KE-37 cells): 18; IC50 (BV-173 cells; [6]): 0.97 ± 0.12 µM; SI (selectivity index) BV-173 (BV-173 cells): 42; IC50 (MDA-MB-231 cells; [7]): 1.22 ± 0.19 µM; SI (selectivity index) MDA-MB-231 (MDA-MB-231 cells): 34; IC50 (MCF-7 cells; [8]): 0.23 ± 0.04 µM; SI (selectivity index) MCF-7 (MCF-7 cells): 179; IC50 at 72 h [2, 9]: 41.1 ± 2.05 µM; SI (selectivity index) SaOS-2 (SaOS-2 cells): 25"
COc1cccc(/C=N/NC(=O)c2ccccc2)c1O [Compound 1],,11.3 ± 2.6,27 ± 2.7,9.8 ± 3.1,20.8 ± 4.2,25.3 ± 2.7,22.5 ± 5.4,25.5 ± 6.2,Ligand Efficiency (LE) K-562 (K-562 cells): 0.228
"COc1ccc(C=NNC(=O)c2ccccc2)c(O)c1 [Compound 12, 4-methoxysalicylaldehyde benzoylhydrazone]",1.68 ± 0.15,,,,,,,,"IC50 (HL-60 cells; [3]): 0.04 ± 0.005 µM; SI (selectivity index) HL-60 (HL-60 cells): 941; IC50 (K-562 cells; [4]): 0.03 ± 0.002 µM; SI (selectivity index) K-562 (K-562 cells): 1254; average SI [1]: 350; IC50 (KE-37 cells; [5]): 1.99 ± 0.17 µM; SI (selectivity index) KE-37 (KE-37 cells): 19; IC50 (BV-173 cells; [6]): 1.21 ± 0.11 µM; SI (selectivity index) BV-173 (BV-173 cells): 31; IC50 (MDA-MB-231 cells; [7]): 2.31 ± 0.25 µM; SI (selectivity index) MDA-MB-231 (MDA-MB-231 cells): 16; melting point: 182 to 183 °C; IC50 (MCF-7 cells; [8]): 0.23 ± 0.02 µM; SI (selectivity index) MCF-7 (MCF-7 cells): 164; IC50 at 72 h [2, 9]: 37.6 ± 3.41 µM; SI (selectivity index) SaOS-2 (SaOS-2 cells): 22"
COc1ccc(O)c(/C=N/NC(=O)c2ccncc2)c1 [Compound 11],,6.68 ± 1.4,,10.9 ± 2.2,2.95 ± 0.8,5.58 ± 1.3,3 ± 0.6,,
O=C(N/N=C/c1cc([N+](=O)[O-])ccc1O)c1ccc(O)cc1 [Compound 7],,14.5 ± 2.1,> 200,19.9 ± 2.2,7.62 ± 1,> 200,4.95 ± 0.06,199 ± 12,
O=C(N/N=C/c1cc([N+](=O)[O-])ccc1O)c1ccccc1 [Compound 6],,5.64 ± 1.1,7.94 ± 2.3,6.38 ± 0.2,2.39 ± 0.3,2.8 ± 2.7,0.25 ± 0.03,41.9 ± 5.1,Ligand Efficiency (LE) K-562 (K-562 cells): 0.243
"N[C@@H](Cc1ccc(N(CCCl)CCCl)cc1)C(=O)O [Melphalan, 2-amino-3-[4-bis(2-chloroethyl)amino]phenylpropanoic acid, reference compound]",31.4 ± 5.4,,,,,,,31.4 ± 5.4,IC50 at 72 h [2]: 24.8 ± 2.9 µM
COc1ccc(O)c(/C=N/NC(=O)c2ccc(O)cc2)c1 [Compound 10],,13.8 ± 3.1,,14.8 ± 2.5,3.86 ± 0.9,12.1 ± 1.9,3.54 ± 0.5,,
